Test results published in PubChem BioAssay AID248 (DTP/NCI, 2004).
Inconclusive results and toxic doses are left out. Cut-off read from the data, not from the text of the source: active = T/C of 150% or more; inactive = T/C below 125%.

Test system: L1210 leukemia ip in BDF1 mice, survival T/C
Experiment: NCI In Vivo Anticancer Drug Screen. Data for tumor model L1210 Leukemia (intraperitoneal) in B6D2F1 (BDF1) mice
Conditions: endpoint: mean survival time, higher = longer survival
Summary of the method: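 Value reflects the ratio of survival in compound-treated mice to survival in vehicle-treated controls, with both groups carrying the same transplanted tumor.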

[1] = dose: 100.0 mg/kg/injection, schedule: Q01DX009 (ip), vehicle: Klucel (hydroxypropylcellulose) (HPC)
[2] = dose: 100.0 mg/kg/injection, schedule: Q04DX003 (ip), vehicle: Klucel (hydroxypropylcellulose) (HPC)
[3] = dose: 200.0 mg/kg/injection, schedule: Q04DX003 (ip), vehicle: Klucel (hydroxypropylcellulose) (HPC)
[4] = dose: 400.0 mg/kg/injection, schedule: Q01DX009 (ip), vehicle: Klucel (hydroxypropylcellulose) (HPC)
[5] = dose: 400.0 mg/kg/injection, schedule: Q04DX003 (ip), vehicle: Klucel (hydroxypropylcellulose) (HPC)
[6] = dose: 50.0 mg/kg/injection, schedule: Q01DX001 (ip), vehicle: saline
[7] = dose: 100.0 mg/kg/injection, schedule: Q01DX001 (ip), vehicle: saline
[8] = dose: 200.0 mg/kg/injection, schedule: Q01DX001 (ip), vehicle: saline
[9] = dose: 200.0 mg/kg/injection, schedule: Q01DX009 (ip), vehicle: Klucel (hydroxypropylcellulose) (HPC)
[10] = dose: 400.0 mg/kg/injection, schedule: Q01DX001 (ip), vehicle: saline
[11] = dose: 100.0 mg/kg/injection, schedule: Q04DX002 (ip), vehicle: Klucel (hydroxypropylcellulose) (HPC)
[12] = dose: 200.0 mg/kg/injection, schedule: Q04DX002 (ip), vehicle: Klucel (hydroxypropylcellulose) (HPC)
[13] = dose: 400.0 mg/kg/injection, schedule: Q04DX002 (ip), vehicle: Klucel (hydroxypropylcellulose) (HPC)
[14] = dose: 50.0 mg/kg/injection, schedule: Q01DX001 (ip), vehicle: carboxymethylcellulose (CMC)
[15] = dose: 100.0 mg/kg/injection, schedule: Q01DX001 (ip), vehicle: carboxymethylcellulose (CMC)
[16] = dose: 200.0 mg/kg/injection, schedule: Q01DX001 (ip), vehicle: carboxymethylcellulose (CMC)
[17] = dose: 400.0 mg/kg/injection, schedule: Q01DX001 (ip), vehicle: carboxymethylcellulose (CMC)
[18] = dose: 100.0 mg/kg/injection, schedule: Q01DX009 (ip), vehicle: saline with Tween-80
[19] = dose: 200.0 mg/kg/injection, schedule: Q01DX009 (ip), vehicle: saline with Tween-80
[20] = dose: 400.0 mg/kg/injection, schedule: Q01DX009 (ip), vehicle: saline with Tween-80
[21] = dose: 50.0 mg/kg/injection, schedule: Q01DX009 (ip), vehicle: saline with Tween-80
[22] = dose: 100.0 mg/kg/injection, schedule: Q04DX003 (ip), vehicle: saline with Tween-80

Measured: T/C

c1ccc(CNc2ccccc2)cc1
inactive: dose: 100.0 mg/kg/injection, schedule: Q01DX009 (sc), vehicle: olive oil, sesame oil, peanut oil 95 % of control | dose: 100.0 mg/kg/injection, schedule: Q04DX003 (sc), vehicle: olive oil, sesame oil, peanut oil 94 % of control | dose: 200.0 mg/kg/injection, schedule: Q01DX009 (sc), vehicle: olive oil, sesame oil, peanut oil 92 % of control | dose: 200.0 mg/kg/injection, schedule: Q04DX003 (sc), vehicle: olive oil, sesame oil, peanut oil 102 % of control | dose: 400.0 mg/kg/injection, schedule: Q01DX009 (sc), vehicle: olive oil, sesame oil, peanut oil 100 % of control | dose: 400.0 mg/kg/injection, schedule: Q04DX003 (sc), vehicle: olive oil, sesame oil, peanut oil 105 % of control

C#CCCCCCCCCC(=O)NCC
inactive: [1] 100 % of control | [2] 95 % of control | [3] 93 % of control | [4] 104 % of control | [5] 108 % of control

CS(=O)(=O)OCC1CCCO1 (configuration not stated)
inactive: [6] 107 % of control | [7] 98 % of control | [1] 98 % of control | [2] 108 % of control | [8] 98 % of control | [9] 111 % of control | [3] 103 % of control | [10] 101 % of control | [4] 93 % of control | [5] 104 % of control

COC1OC2COc3ccccc3OC2C2C1N2C(N)=O (configuration not stated)
inactive: [11] 104 % of control | [12] 96 % of control | [13] 100 % of control

COC(=O)CCNc1ccccc1C(=O)OC
inactive: [14] 100 % of control | [15] 107 % of control | [16] 113 % of control | [17] 100 % of control

Cn1nc([N+](=O)[O-])sc1=N
inactive: [2] 98 % of control | [3] 98 % of control | [5] 101 % of control

Cc1ccc(S(=O)(=O)OC2COCOC2C2(OS(=O)(=O)c3ccc(C)cc3)COCOC2)cc1 (configuration not stated)
inactive: [11] 101 % of control | [12] 101 % of control | [13] 104 % of control

CSc1ccc(NC(=O)NCCc2ccccc2)cc1
inactive: [18] 94 % of control | [2] 96 % of control | [19] 102 % of control | [3] 96 % of control | [20] 107 % of control | [5] 104 % of control

CC#CCCC(=O)OCCCC
inactive: dose: 100.0 mg/kg/injection, schedule: Q04DX002 (ip), vehicle: saline with Tween-80 101 % of control | dose: 200.0 mg/kg/injection, schedule: Q04DX002 (ip), vehicle: saline with Tween-80 93 % of control | dose: 400.0 mg/kg/injection, schedule: Q04DX002 (ip), vehicle: saline with Tween-80 97 % of control

CCNc1ccc(F)cc1[N+](=O)[O-]
inactive: dose: 100.0 mg/kg/injection, schedule: Q01DX009 (ip), vehicle: saline sonified 110 % of control | [2] 103 % of control | dose: 200.0 mg/kg/injection, schedule: Q01DX009 (ip), vehicle: saline sonified 102 % of control | [3] 104 % of control | dose: 400.0 mg/kg/injection, schedule: Q01DX009 (ip), vehicle: saline sonified 102 % of control | [5] 97 % of control

C1CCC(P(C2CCCCC2)C2CCCCC2)CC1
inactive: [2] 93 % of control | [3] 93 % of control | [5] 89 % of control

CC1CP(=O)(Cc2ccccc2)C(c2ccccc2)=C1O (configuration not stated)
inactive: [2] 90 % of control | [3] 93 % of control | [5] 96 % of control

CSc1nnc2c3ccccc3ccn12
inactive: [15] 104 % of control | [16] 96 % of control | [17] 93 % of control

COc1ccc(C(=O)C(C)C=O)c(OCc2ccccc2)c1OC (configuration not stated)
inactive: [21] 98 % of control | [18] 96 % of control | [22] 114 % of control | [19] 93 % of control | dose: 200.0 mg/kg/injection, schedule: Q04DX003 (ip), vehicle: saline with Tween-80 95 % of control | [20] 97 % of control | dose: 400.0 mg/kg/injection, schedule: Q04DX003 (ip), vehicle: saline with Tween-80 103 % of control

Cc1ccc(NC(=S)Nc2ccccc2)c(C)c1
inactive: dose: 100.0 mg/kg/injection, schedule: Q01DX001 (ip), vehicle: other 89 % of control | [1] 102 % of control | [11] 87 % of control | dose: 200.0 mg/kg/injection, schedule: Q01DX001 (ip), vehicle: other 94 % of control | [9] 97 % of control | [12] 90 % of control | dose: 400.0 mg/kg/injection, schedule: Q01DX001 (ip), vehicle: other 97 % of control | [4] 94 % of control | [13] 106 % of control

NCCCCC(N)C(=O)NC1C(CO)OC(n2cnc3c(N)ncnc32)C1O (configuration not stated)
inactive: [7] 101 % of control | [8] 105 % of control | [10] 101 % of control

COc1c(F)c(F)c(Oc2c(F)c(F)c(OC)c(F)c2F)c(F)c1F
inactive: dose: 100.0 mg/kg/injection, schedule: Q01DX001 (ip), vehicle: Klucel (hydroxypropylcellulose) (HPC) 99 % of control | dose: 200.0 mg/kg/injection, schedule: Q01DX001 (ip), vehicle: Klucel (hydroxypropylcellulose) (HPC) 92 % of control | dose: 400.0 mg/kg/injection, schedule: Q01DX001 (ip), vehicle: Klucel (hydroxypropylcellulose) (HPC) 94 % of control

ClCC1(CCl)OCCO1
inactive: dose: 75.0 mg/kg/injection, schedule: Q01DX001 (ip), vehicle: carboxymethylcellulose (CMC) 95 % of control | dose: 150.0 mg/kg/injection, schedule: Q01DX001 (ip), vehicle: carboxymethylcellulose (CMC) 104 % of control

CCOC(=O)Cc1cc(O)ccc1O
inactive: dose: 100.0 mg/kg/injection, schedule: Q01DX001 (ip), vehicle: saline with Tween-80 109 % of control | dose: 200.0 mg/kg/injection, schedule: Q01DX001 (ip), vehicle: saline with Tween-80 89 % of control | dose: 400.0 mg/kg/injection, schedule: Q01DX001 (ip), vehicle: saline with Tween-80 91 % of control

Cc1c2c(c(C)c3c1[nH]c1ccccc13)CCN=C2
inactive: [14] 104 % of control | [15] 114 % of control | [16] 104 % of control | [17] 111 % of control

CC[N+](C)(CC)CCOC(=O)c1ccccc1Oc1ccc(C)cc1
inactive: dose: 100.0 mg/kg/injection, schedule: Q04DX003 (ip), vehicle: saline 96 % of control

CN(C)CCCC1C2CCC(C2)C1C#N (configuration not stated)
inactive: dose: 12.5 mg/kg/injection, schedule: Q01DX009 (ip), vehicle: Klucel (hydroxypropylcellulose) (HPC) 104 % of control | dose: 25.0 mg/kg/injection, schedule: Q01DX009 (ip), vehicle: Klucel (hydroxypropylcellulose) (HPC) 95 % of control | dose: 25.0 mg/kg/injection, schedule: Q04DX003 (ip), vehicle: Klucel (hydroxypropylcellulose) (HPC) 96 % of control | dose: 50.0 mg/kg/injection, schedule: Q01DX009 (ip), vehicle: Klucel (hydroxypropylcellulose) (HPC) 104 % of control | dose: 50.0 mg/kg/injection, schedule: Q04DX003 (ip), vehicle: Klucel (hydroxypropylcellulose) (HPC) 93 % of control

Oc1ccc(Cl)cc1/C=N/N1CCN(/N=C/c2cc(Cl)ccc2O)CC1
inactive: [7] 90 % of control | [8] 90 % of control | [10] 90 % of control

CC(=O)N1CCc2cc(N)ccc21
inactive: [19] 103 % of control

CC(=O)Nc1ccc(/C=C/c2ccc3ccccc3[n+]2C)cc1
inactive: dose: 25.0 mg/kg/injection, schedule: Q01DX009 (ip), vehicle: saline with Tween-80 97 % of control | dose: 25.0 mg/kg/injection, schedule: Q04DX003 (ip), vehicle: saline with Tween-80 101 % of control | [21] 106 % of control | dose: 50.0 mg/kg/injection, schedule: Q04DX003 (ip), vehicle: saline with Tween-80 98 % of control | [22] 94 % of control

O=C(CCCC(=O)N/N=C/c1cc(O)ccc1O)N/N=C\c1cc(O)ccc1O
inactive: [6] 102 % of control | [7] 96 % of control | [8] 90 % of control | [10] 98 % of control

CN(CSc1ccc([N+](=O)[O-])cc1)CSc1ccc([N+](=O)[O-])cc1
inactive: [7] 94 % of control | [8] 88 % of control | [10] 94 % of control

COc1ccc(/C=N/N2CCN(/N=C/c3ccc(OC)cc3)CC2)cc1
inactive: [15] 88 % of control | [16] 88 % of control | [17] 93 % of control

O=P(Cc1ccccc1)(Oc1ccccc1)Oc1ccccc1
inactive: [1] 91 % of control | [9] 94 % of control | [4] 91 % of control
